Test results taken from patent publication US10457655B2, “Compounds and compositions for inhibition of FASN” (FORMA Therapeutics, Inc., priority 2013, dated 2019).
Like-named read-outs stand apart in the source and are kept apart here.

What was measured:
FASN enzyme = FASN enzyme (Homo sapiens, UniProt P49327); assay: Enzymatic Assay for FASN Inhibitors; format: biochemical
Method in brief: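 40 nM FASN preincubated with compound 60 min at 25° C in HEPES pH 7.3 buffer with 0.04% Triton X-100. Then 20 μM acetyl-CoA, 60 μM malonyl-CoA and 100 μM NADPH added for 90 min, quenched with CPM thiol probe; fluorescence 360/530 nm, IC50 by four-parameter fit.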

PC3 cells = assay: Cell Proliferation Assays for FASN Inhibitors (PC3 cells, MTT); format: cell-based; conditions: Homo sapiens, PC-3, 96 h
Protocol: The effects of the FASN inhibitors on cultured cancer cell proliferation were studies with cell proliferation assays. PC3 cells were maintained at standard culture media (F12K media supplemented with 10% fetal bovine serum, 1×MEM nonessential amino acid and 1× penicillin/streptomycin). 2000-3000 cells/100 μL/well was seeded in a 96-well clear culture plate. The cells were incubated overnight in 5% CO2 at 37° C. for attachment. Cell media were removed and replaced with F12K media containing 10% lipid reduced serum and compound. The final DMSO concentration is 0.1%. The cells were maintained in 5% CO2 at 37° C. for 4 days. The viability of cells was determined by MTT assays. The IC50 of a given compound was calculated by fitting the dose response curve with a four parameter logistic equation.

[1] = read-out: IC50 (uM) < 0.5, 10% lipid reduced serum, 4 days, Table 3-1
[2] = read-out: IC50 (uM) ≥ 0.5, 10% lipid reduced serum, 4 days, Table 3-2

Chain of FASN enzyme (P49327 whole entry): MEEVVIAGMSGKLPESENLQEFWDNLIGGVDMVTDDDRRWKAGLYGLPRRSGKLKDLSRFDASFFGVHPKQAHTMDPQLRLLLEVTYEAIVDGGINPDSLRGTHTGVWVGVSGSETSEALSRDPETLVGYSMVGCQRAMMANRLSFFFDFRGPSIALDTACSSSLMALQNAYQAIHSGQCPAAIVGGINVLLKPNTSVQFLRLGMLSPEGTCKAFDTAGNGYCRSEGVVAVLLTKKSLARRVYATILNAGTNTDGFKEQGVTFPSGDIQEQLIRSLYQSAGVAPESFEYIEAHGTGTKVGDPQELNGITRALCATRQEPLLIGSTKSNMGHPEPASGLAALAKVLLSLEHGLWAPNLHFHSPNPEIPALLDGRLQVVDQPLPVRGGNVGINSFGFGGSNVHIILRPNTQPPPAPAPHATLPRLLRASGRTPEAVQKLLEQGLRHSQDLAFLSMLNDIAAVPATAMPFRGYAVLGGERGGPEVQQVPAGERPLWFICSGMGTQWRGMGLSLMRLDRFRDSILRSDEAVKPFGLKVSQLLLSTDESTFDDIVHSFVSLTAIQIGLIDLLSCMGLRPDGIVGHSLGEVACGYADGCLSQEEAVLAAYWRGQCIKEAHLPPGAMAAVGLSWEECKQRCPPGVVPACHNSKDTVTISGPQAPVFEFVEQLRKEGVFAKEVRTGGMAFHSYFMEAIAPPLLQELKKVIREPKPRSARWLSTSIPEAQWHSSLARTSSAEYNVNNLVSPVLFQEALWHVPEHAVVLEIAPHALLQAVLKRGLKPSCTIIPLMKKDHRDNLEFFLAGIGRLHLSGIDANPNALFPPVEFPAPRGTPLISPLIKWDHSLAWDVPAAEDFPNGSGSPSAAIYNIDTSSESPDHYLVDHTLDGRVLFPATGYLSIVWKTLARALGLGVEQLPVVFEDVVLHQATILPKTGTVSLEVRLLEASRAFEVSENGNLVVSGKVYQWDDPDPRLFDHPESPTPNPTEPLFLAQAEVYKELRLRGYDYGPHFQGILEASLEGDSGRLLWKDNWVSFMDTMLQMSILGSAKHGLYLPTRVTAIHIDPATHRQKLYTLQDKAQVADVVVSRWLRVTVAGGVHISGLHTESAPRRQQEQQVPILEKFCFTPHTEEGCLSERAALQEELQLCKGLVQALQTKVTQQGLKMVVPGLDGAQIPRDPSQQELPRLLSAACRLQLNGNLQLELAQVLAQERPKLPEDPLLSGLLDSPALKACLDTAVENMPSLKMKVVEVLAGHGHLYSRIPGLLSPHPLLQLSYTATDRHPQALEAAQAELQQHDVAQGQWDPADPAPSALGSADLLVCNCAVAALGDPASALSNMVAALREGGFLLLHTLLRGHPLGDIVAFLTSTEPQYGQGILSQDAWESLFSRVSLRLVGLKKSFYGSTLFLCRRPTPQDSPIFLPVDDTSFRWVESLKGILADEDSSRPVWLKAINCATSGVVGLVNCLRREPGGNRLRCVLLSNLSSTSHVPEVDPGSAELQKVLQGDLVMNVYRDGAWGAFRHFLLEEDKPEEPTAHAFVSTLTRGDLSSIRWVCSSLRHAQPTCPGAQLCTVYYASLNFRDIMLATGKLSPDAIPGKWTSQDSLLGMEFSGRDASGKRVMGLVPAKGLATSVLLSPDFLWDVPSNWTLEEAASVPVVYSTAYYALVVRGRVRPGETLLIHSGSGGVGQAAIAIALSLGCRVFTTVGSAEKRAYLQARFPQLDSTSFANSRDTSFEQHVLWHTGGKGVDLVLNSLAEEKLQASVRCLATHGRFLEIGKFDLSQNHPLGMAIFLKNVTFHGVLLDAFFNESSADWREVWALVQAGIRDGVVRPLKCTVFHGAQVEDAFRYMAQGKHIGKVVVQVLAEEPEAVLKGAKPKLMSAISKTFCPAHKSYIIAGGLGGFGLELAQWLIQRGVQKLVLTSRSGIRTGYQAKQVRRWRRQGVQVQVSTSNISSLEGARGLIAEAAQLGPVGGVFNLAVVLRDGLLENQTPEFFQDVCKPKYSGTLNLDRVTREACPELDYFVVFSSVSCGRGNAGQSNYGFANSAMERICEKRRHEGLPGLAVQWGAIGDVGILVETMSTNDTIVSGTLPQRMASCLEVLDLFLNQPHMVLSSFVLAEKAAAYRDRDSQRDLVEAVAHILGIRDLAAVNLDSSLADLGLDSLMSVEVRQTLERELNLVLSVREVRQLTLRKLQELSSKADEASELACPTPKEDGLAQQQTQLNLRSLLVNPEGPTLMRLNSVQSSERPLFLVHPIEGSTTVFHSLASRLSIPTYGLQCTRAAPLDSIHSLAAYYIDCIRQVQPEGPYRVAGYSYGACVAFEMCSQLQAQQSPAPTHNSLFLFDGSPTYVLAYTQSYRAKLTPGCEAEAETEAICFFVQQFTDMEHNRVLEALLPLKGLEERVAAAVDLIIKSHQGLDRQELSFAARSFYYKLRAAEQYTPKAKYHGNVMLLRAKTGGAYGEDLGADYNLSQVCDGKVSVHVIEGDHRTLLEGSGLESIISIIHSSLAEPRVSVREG

SMILES | IC50 (FASN enzyme) [nM] | IC50 (PC3 cells; [1]) [µM] | IC50 (PC3 cells; [2]) [µM] | IC50 (FASN enzyme; FASN enzymatic assay, Table 2-2) [nM]
O=C(c1ccc(-c2cnc3ccccc3c2)c(Cl)c1)N1CCN(C(=O)C2(O)CC2)CC1 [1-[(4-{[3-chloro-4-(quinolin-3-yl)phenyl]carbonyl}piperazin-1-yl)carbonyl]cyclopropan-1-ol] | < 500 | < 0.5 | – | –
O=C(c1ccc2nc(-c3ccccc3)sc2c1)N1CCN(C(=O)C2(O)CC2)CC1 [1-({4-[(2-phenyl-1,3-benzothiazol-6-yl)carbonyl]piperazin-1-yl}carbonyl)cyclopropan-1-ol] | < 500 | < 0.5 | – | –
CC(C)n1ccc2cc(-c3ccc(C(=O)N4CCN(C(=O)C5(O)CC5)CC4)cc3Cl)ccc21 [1-{[4-({3-chloro-4-[1-(propan-2-yl)-1H-indol-5-yl]phenyl}carbonyl)piperazin-1-yl]carbonyl}cyclopropan-1-ol] | < 500 | – | ≥ 0.5 | –
O=C(c1ccc(-c2ccc3scnc3c2)c(F)c1)N1CCN(C(=O)C2(O)CC2)CC1 [1-[(4-{[4-(1,3-benzothiazol-5-yl)-3-fluorophenyl]carbonyl}piperazin-1-yl)carbonyl]cyclopropan-1-ol] | < 500 | < 0.5 | – | –
Cc1cc(C(=O)N2CCN(C(=O)C3(O)CC3)CC2)ccc1-c1ccc2scnc2c1 [1-[(4-{[4-(1,3-benzothiazol-5-yl)-3-methylphenyl]carbonyl}piperazin-1-yl)carbonyl]cyclopropan-1-ol] | < 500 | < 0.5 | – | –
O=C(c1ccc(-c2cccc3[nH]cnc23)cc1)N1CCN(C(=O)C2(O)CC2)CC1 [1-[(4-{[4-(1H-1,3-benzodiazol-4-yl)phenyl]carbonyl}piperazin-1-yl)carbonyl]cyclopropan-1-ol] | < 500 | < 0.5 | – | –
Cn1ccc2cc(-c3ccc(C(=O)N4CCN(C(=O)C5(O)CC5)CC4)nc3)ccc21 [1-[(4-{[5-(1-methyl-1H-indol-5-yl)pyridin-2-yl]carbonyl}piperazin-1-yl)carbonyl]cyclopropan-1-ol] | < 500 | < 0.5 | – | –
O=C(c1ccc(-c2cn3ccccc3n2)cc1Cl)N1CCN(C(=O)C2(O)CC2)CC1 [1-({4-[(2-chloro-4-{imidazo[1,2-a]pyridin-2-yl}phenyl)carbonyl]piperazin-1-yl}carbonyl)cyclopropan-1-ol] | < 500 | < 0.5 | – | –
O=C(c1ccc(-c2cccc3ncccc23)cc1)N1CCN(C(=O)C2(O)CC2)CC1 [1-[(4-{[4-(quinolin-5-yl)phenyl]carbonyl}piperazin-1-yl)carbonyl]cyclopropan-1-ol] | < 500 | < 0.5 | – | –
Cn1cc2cc(-c3ccc(C(=O)N4CCN(C(=O)C5(O)CC5)CC4)cc3)ccc2n1 [1-[(4-{[4-(2-methyl-2H-indazol-5-yl)phenyl]carbonyl}piperazin-1-yl)carbonyl]cyclopropan-1-ol] | < 500 | < 0.5 | – | –
O=C(c1ccc(-c2cnc3ccccc3c2)cc1Cl)N1CCN(C(=O)C2(O)CC2)CC1 | < 500 | < 0.5 | – | –
O=C(c1ccc(-c2ccc3nsnc3c2)cc1)N1CCN(C(=O)C2(O)CC2)CC1 [1-[(4-{[4-(2,1,3-benzothiadiazol-5-yl)phenyl]carbonyl}piperazin-1-yl)carbonyl]cyclopropan-1-ol] | < 500 | < 0.5 | – | –
O=C(c1ccc(-c2ccc3nccn3n2)cc1)N1CCN(C(=O)C2(O)CC2)CC1 [1-({4-[(4-{imidazo[1,2-b]pyridazin-6-yl}phenyl)carbonyl]piperazin-1-yl}carbonyl)cyclopropan-1-ol] | < 500 | < 0.5 | – | –
COc1ccc2cc(-c3ccc(C(=O)N4CCN(C(=O)C5(O)CC5)CC4)cc3)ccc2c1 [1-[(4-{[4-(6-methoxynaphthalen-2-yl)phenyl]carbonyl}piperazin-1-yl)carbonyl]cyclopropan-1-ol] | < 500 | < 0.5 | – | –
O=C(c1ccc(-c2cnc3ccccc3c2Cl)cc1)N1CCN(C(=O)C2(O)CC2)CC1 [1-[(4-{[4-(4-chloroquinolin-3-yl)phenyl]carbonyl}piperazin-1-yl)carbonyl]cyclopropan-1-ol] | < 500 | < 0.5 | – | –
O=C(c1ccc(-c2cnc3ccccc3c2)cc1F)N1CCN(C(=O)C2(O)CC2)CC1 [1-[(4-{[2-fluoro-4-(quinolin-3-yl)phenyl]carbonyl}piperazin-1-yl)carbonyl]cyclopropan-1-ol] | < 500 | < 0.5 | – | –
COc1nc2ccccc2cc1-c1ccc(C(=O)N2CCN(C(=O)C3(O)CC3)CC2)c(F)c1 [1-[(4-{[2-fluoro-4-(2-methoxyquinolin-3-yl)phenyl]carbonyl}piperazin-1-yl)carbonyl]cyclopropan-1-ol] | < 500 | < 0.5 | – | –
Cn1ccc2cc(-c3ccc(C(=O)N4CCN(C(=O)C5(O)CC5)CC4)cc3Cl)ccc21 [1-[(4-{[3-chloro-4-(1-methyl-1H-indol-5-yl)phenyl]carbonyl}piperazin-1-yl)carbonyl]cyclopropan-1-ol] | < 500 | < 0.5 | – | –

SMILES | IC50 (FASN enzyme) [nM] | IC50 (PC3 cells; [1]) [µM] | IC50 (PC3 cells; [2]) [µM] | IC50 (FASN enzyme; FASN enzymatic assay, Table 2-2) [nM]
O=C(c1ccc(-c2ccc3[nH]cnc3c2)cc1)N1CCN(C(=O)C2(O)CC2)CC1 [1-[(4-{[4-(1H-1,3-benzodiazol-5-yl)phenyl]carbonyl}piperazin-1-yl)carbonyl]cyclopropan-1-ol] | < 500 | < 0.5 | – | –
COc1ccc2nc(-c3ccc(C(=O)N4CCN(C(=O)C5(O)CC5)CC4)cc3)ccc2c1 [1-[(4-{[4-(6-methoxyquinolin-2-yl)phenyl]carbonyl}piperazin-1-yl)carbonyl]cyclopropan-1-ol] | < 500 | < 0.5 | – | –
Cn1ccc2cc(-c3ccc(C(=O)N4CCN(C(=O)C5(O)CC5)CC4)c(C(F)(F)F)c3)ccc21 [1-[(4-{[4-(1-methyl-1H-indol-5-yl)-2-(trifluoromethyl)phenyl]carbonyl}piperazin-1-yl)carbonyl]cyclopropan-1-ol] | < 500 | < 0.5 | – | –
O=C(c1ccc(-c2ccc3scnc3c2)cc1Cl)N1CCN(C(=O)C2(O)CC2)CC1 [1-[(4-{[4-(1,3-benzothiazol-5-yl)-2-chlorophenyl]carbonyl}piperazin-1-yl)carbonyl]cyclopropan-1-ol] | < 500 | < 0.5 | – | –
COc1c(Cl)cccc1-c1ccc(C(=O)N2CCN(C(=O)C3(O)CC3)CC2)cc1 [1-[(4-{[4-(3-chloro-2-methoxyphenyl)phenyl]carbonyl}piperazin-1-yl)carbonyl]cyclopropan-1-ol] | < 500 | < 0.5 | – | –
O=C(c1ccc(-c2ccc3ccccc3n2)cc1)N1CCN(C(=O)C2(O)CC2)CC1 [1-[(4-{[4-(quinolin-2-yl)phenyl]carbonyl}piperazin-1-yl)carbonyl]cyclopropan-1-ol] | < 500 | < 0.5 | – | –
COc1ccc2cc(-c3ccc(C(=O)N4CCN(C(=O)C5(O)CC5)CC4)cc3)ccc2n1 [1-[(4-{[4-(2-methoxyquinolin-6-yl)phenyl]carbonyl}piperazin-1-yl)carbonyl]cyclopropan-1-ol] | < 500 | < 0.5 | – | –
O=C(c1ccc(-c2ccc3n[nH]nc3c2)cc1)N1CCN(C(=O)C2(O)CC2)CC1 [1-[(4-{[4-(2H-1,2,3-benzotriazol-5-yl)phenyl]carbonyl}piperazin-1-yl)carbonyl]cyclopropan-1-ol] | < 500 | < 0.5 | – | –
Cn1ncc2ccc(-c3ccc(C(=O)N4CCN(C(=O)C5(O)CC5)CC4)cc3)cc21 [1-[(4-{[4-(1-methyl-1H-indazol-6-yl)phenyl]carbonyl}piperazin-1-yl)carbonyl]cyclopropan-1-ol] | < 500 | < 0.5 | – | –
O=C(c1ccc(-c2nc3ccccc3[nH]2)cc1)N1CCN(C(=O)C2(O)CC2)CC1 | – | < 0.5 | – | 500 to 5000
N#Cc1c[nH]c2ccc(-c3ccc(C(=O)N4CCN(C(=O)C5(O)CC5)CC4)cc3)cc12 [5-[4-({4-[(1-hydroxycyclopropyl)carbonyl]piperazin-1-yl}carbonyl)phenyl]-1H-indole-3-carbonitrile] | < 500 | < 0.5 | – | –
O=C(c1ccc(-c2cc3ccccc3[nH]c2=O)cc1)N1CCN(C(=O)C2(O)CC2)CC1 [3-[4-({4-[(1-hydroxycyclopropyl)carbonyl]piperazin-1-yl}carbonyl)phenyl]-1,2-dihydroquinolin-2-one] | < 500 | < 0.5 | – | –
O=C(c1ccc(-c2ccc3[nH]ccc3c2)cc1)N1CCN(C(=O)C2CCO2)CC1 (stereo not shown) [5-[4-({4-[(oxetan-2-yl)carbonyl]piperazin-1-yl}carbonyl)phenyl]-1H-indole] | < 500 | – | ≥ 0.5 | –
O=C(c1ccc(-c2ccc3cnccc3c2)cc1)N1CCN(C(=O)C2(O)CCC2)CC1 [1-[(4-{[4-(isoquinolin-6-yl)phenyl]carbonyl}piperazin-1-yl)carbonyl]cyclobutan-1-ol] | < 500 | < 0.5 | – | –
COc1cc(-n2cccn2)ccc1-c1ccc(C(=O)N2CCN(C(=O)C3(O)CC3)CC2)cc1 | < 500 | – | ≥ 0.5 | –
O=C(c1ccc(-c2ccc(Cl)cc2Cl)cc1)N1CCN(C(=O)C2(O)CC2)CC1 [1-[(4-{[4-(2,4-dichlorophenyl)phenyl]carbonyl}piperazin-1-yl)carbonyl]cyclopropan-1-ol] | < 500 | – | ≥ 0.5 | –
O=C(c1ccc(-c2nc3cc(Cl)ccc3o2)cc1)N1CCN(C(=O)C2(O)CC2)CC1 [1-[(4-{[4-(5-chloro-1,3-benzoxazol-2-yl)phenyl]carbonyl}piperazin-1-yl)carbonyl]cyclopropan-1-ol] | < 500 | < 0.5 | – | –
